The record followed here is patent US20240002416A1 (Rheinische-Friedrich-Wilhelms-Universität Bonn, priority 2020, published 2024).

The target in one data set is MRGPRX4-83S (Homo sapiens, UniProt Q96LA9, L83S). Kind of data set: β-arrestin assay (CHO β-arrestin human MRGPRX4-83S). Format: cell-based. Details: host or cells: CHO β-arrestin cells. The conditions noted are these: for Emax: efficacy based on 100 nM B-16 (set as 100%), read-out: Emax; for EC50: β-arrestin recruitment, CHO cells, MRGPRX4-83S, read-out: EC50 ± SEM. The procedure:
(§1) For β-arrestin recruitment assays, recombinant Chinese hamster ovary (CHO) cells expressing the human MRGPRX4 were used (DiscoverX/Eurofins) which allowed to measure β-galactosidase complementation upon β-arrestin recruitment. For calcium mobilization assays, recombinant astrocytes expressing MRGPX4-83L, or LN229 glioblastoma cells natively expressing the MRGPRX4-83S, were used.
(§2) The assays were performed as previously described for other rhodopsin-like GPCRs (Müller, C.E.; 8-Benzamidochromen-4-one-2-carboxylic acids: potent and selective agonists for the orphan G protein-coupled receptor GPR35. J. Med. Chem. 2013, 56:5182-97; Müller, C.E. Molecular Recognition of Agonists and Antagonists by the Nucleotide-Activated G Protein-Coupled P2Y2 Receptor. J. Med. Chem. 2017, 60:8425-8440).

In data set [1] the target is T1, human MRGPRX4-83L (Homo sapiens, UniProt Q96LA9).
T1 construct: host or cells: CHO β-arrestin cells
Kind of data set: Calcium assay (human MRGPRX4 83L), recombinant astrocytes. The class given is cell-based. Particulars: for EC50: calcium mobilization, MRGPRX4-83L, read-out: EC50 ± SEM; for Emax: efficacy based on maximal effect of 1 μM B-16 (set as 100%), read-out: Emax. The procedure: as §1, §2

Data set [2] addresses T1, human MRGPRX4-83L. Description: β-arrestin assay (CHO β-arrestin ARMS1-ProLink 2 human MRGPRX4 83L). Format: cell-based. The conditions noted are these: for IC50: inhibition of the effect of 2.6 μM B-16; for EC50: β-arrestin recruitment, CHO cells, MRGPRX4-83L, read-out: EC50 ± SEM; for Emax: efficacy based on maximal effect of 100 nM B-16 (set as 100%), read-out: Emax. The procedure:
as §1, §2

Where [3] appears, read: Table 1, means of 3-4 experiments.

Molecules are shown by their SMILES. Like-named read-outs stand apart in the source and are kept apart here. Some results are limits rather than exact numbers.

T1 sequence (Q96LA9 whole entry): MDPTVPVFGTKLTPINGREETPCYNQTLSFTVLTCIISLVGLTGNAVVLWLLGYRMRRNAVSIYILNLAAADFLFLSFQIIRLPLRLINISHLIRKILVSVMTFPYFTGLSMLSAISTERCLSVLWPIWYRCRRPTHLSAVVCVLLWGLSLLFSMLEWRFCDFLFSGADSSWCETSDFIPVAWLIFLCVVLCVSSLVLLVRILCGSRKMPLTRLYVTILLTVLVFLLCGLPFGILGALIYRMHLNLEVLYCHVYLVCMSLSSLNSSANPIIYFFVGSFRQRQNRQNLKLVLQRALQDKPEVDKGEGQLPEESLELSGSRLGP
Sequence of MRGPRX4-83S (Q96LA9 whole entry L83S): as the sequence (Q96LA9 whole entry) above, with L83S counted along it

On to `C#CCn1c(=O)c2[nH]c(CCc3ccc(-c4ccccc4)cc3)nc2n(CCCCP(=O)(O)O)c1=O` [B-27, (4-(8-(2-([1,1′-Biphenyl]-4-yl)ethyl)-2,6-dioxo-1-(prop-2-yn-1-yl)-1,2,6,7-tetrahydro-3H-purin-3-yl)butyl)phosphonic acid], for which the melting point fell in the range of 212 to 214 °C. Further, on MRGPRX4-83S (Table 3), the maximum response (Emax) turned out to be 68% and the EC50 was 0.0367 ± 0.0028 µM.

The molecule `C#CCn1c(=O)c2[nH]c(CCc3cccc(Br)c3)nc2n(CCCCP(=O)(OCC)OCC)c1=O` [C-3, Diethyl (4-(8-(3-bromophenethyl)-2,6-dioxo-1-(prop-2-yn-1-yl)-1,2,6,7-tetrahydro-3H-purin-3-yl)butyl)phosphonate] registered a melting point of 133 to 135 °C. Moreover, the IC50 on human MRGPRX4-83L [1] was above 10 µM. On human MRGPRX4-83L [1] (Table 1), the EC50 was above 10 µM. Besides, at MRGPRX4-83S (Table 2), the EC50 is above 10 µM. The concentration for half-maximal inhibition (IC50) against human MRGPRX4-83L [2] (Table 1) is above 10 µM. Moreover, the EC50 at human MRGPRX4-83L [2] (setting [3]) was above 10 µM.

With `CCOP(=O)(CCCCn1c(=O)n(CC)c(=O)c2[nH]c(C3CC3c3ccccc3)nc21)OCC` (stereo not shown) [C-9, Diethyl (4-(1-ethyl-2,6-dioxo-8-(2-phenylcyclopropyl)-1,2,6,7-tetrahydro-3H-purin-3-yl)butyl)phosphonate], the melting point was 124 to 126 °C. In addition, on human MRGPRX4-83L [1], the IC50 is above 10 µM. At human MRGPRX4-83L [1] (Table 1), the EC50 was above 10 µM. Further, the EC50 on MRGPRX4-83S (Table 2) was above 10 µM. On human MRGPRX4-83L [2] (Table 1), this molecule registered an IC50 above 10 µM. The EC50 on human MRGPRX4-83L [2] (setting [3]) is above 10 µM.

`C#CCn1c(=O)c2[nH]c(CCc3ccc(OC)c(OC)c3)nc2n(CCCCP(=O)(O)O)c1=O` [B-11, (4-(8-(3,4-Dimethoxyphenethyl)-2,6-dioxo-1-(prop-2-yn-1-yl)-1,2,6,7-tetrahydro-3H-purin-3-yl)butyl)phosphonic acid] registered a melting point of 254 to 256 °C. For the same molecule, at human MRGPRX4-83L [1] (Table 1), the EC50 was 28 ± 3.3 µM and the Emax is 100%. 9.72 ± 1.05 µM corresponded to half-maximal inhibition at MRGPRX4-83S (IC50). In addition, on human MRGPRX4-83L [2] (Table 1), 50.5 ± 1.4 µM corresponded to half-maximal inhibition (IC50). Besides, the EC50 on human MRGPRX4-83L [2] (setting [3]) was above 10 µM.

As for `C#CCn1c(=O)c2[nH]c(CCc3ccccc3OC)nc2n(CCCCC(=O)O)c1=O` [G-1, 5-(8-(2-Methoxyphenethyl)-2,6-dioxo-1-(prop-2-yn-1-yl)-1,2,6,7-tetrahydro-3H-purin-3-yl)pentanoic acid], the melting point was 196 to 198 °C. Also, on human MRGPRX4-83L [1], the IC50 was above 10 µM. At human MRGPRX4-83L [1] (Table 1), the EC50 is above 10 µM. Moreover, at MRGPRX4-83S (Table 2), the EC50 is above 10 µM. The molecule further yielded an IC50 against human MRGPRX4-83L [2] (Table 1) above 10 µM. The EC50 at human MRGPRX4-83L [2] (setting [3]) was above 10 µM.

Take `C#CCn1c(=O)c2c(nc(CCc3ccc(Br)cc3)n2C)n(CCCCP(=O)(O)O)c1=O` [B-29, (4-(8-(4-Bromophenethyl)-7-methyl-2,6-dioxo-1-(prop-2-yn-1-yl)-1,2,6,7-tetrahydro-3H-purin-3-yl)butyl)phosphonic acid]: the melting point was 227 to 229 °C. For the same molecule, at human MRGPRX4-83L [1] (Table 4), the EC50 came to 0.134 ± 0.013 µM and the Emax was 45%. In addition, at human MRGPRX4-83L [2] (Table 4), the Emax is 100% and the EC50 turned out to be 2.44 ± 0.75 µM.

With `C#CCn1c(=O)c2c(nc(CCc3ccccc3Br)n2Cc2ccccc2)n(CCCCP(=O)(O)O)c1=O` [B-23, (4-(7-Benzyl-8-(2-bromophenethyl)-2,6-dioxo-1-(prop-2-yn-1-yl)-1,2,6,7-tetrahydro-3H-purin-3-yl)butyl)phosphonic acid], the melting point was 126 to 129 °C. On human MRGPRX4-83L [1] (Table 1), the concentration for a half-maximal effect (EC50) amounted to 0.00503 ± 0.00159 µM and the Emax is 103%. In addition, on human MRGPRX4-83L [2] (Table 1), the Emax came out at 164%. In addition, the EC50 at human MRGPRX4-83L [2] (setting [3]) was 0.0599 ± 0.0128 µM.

In the case of `C#CCn1c(=O)c2c(nc(CCc3ccccc3F)n2CC)n(CCCCP(=O)(O)O)c1=O` [B-30, (4-(7-Ethyl-8-(2-fluorophenethyl)-2,6-dioxo-1-(prop-2-yn-1-yl)-1,2,6,7-tetrahydro-3H-purin-3-yl)butyl)phosphonic acid], the melting point is 197 to 199 °C. At human MRGPRX4-83L [1] (Table 4), the concentration for a half-maximal effect (EC50) was 0.0155 ± 0.0125 µM and the Emax came out at 97%. In addition, on human MRGPRX4-83L [2] (Table 4), the maximal response (Emax) was 96% and the EC50 is 0.262 ± 0.097 µM.

In the case of `C#CCn1c(=O)c2c(nc(CCc3ccccc3Br)n2CC2CC2)n(CCCCP(=O)(O)O)c1=O` [B-21, (4-(8-(2-Bromophenethyl)-7-(cyclopropylmethyl)-2,6-dioxo-1-(prop-2-yn-1-yl)-1,2,6,7-tetrahydro-3H-purin-3-yl)butyl)phosphonic acid], the melting point fell in the range of 181 to 184 °C. At human MRGPRX4-83L [1] (Table 1), the EC50 is 0.00202 ± 0.00062 µM and the Emax is 109%. In addition, the Emax at human MRGPRX4-83L [2] (Table 1) turned out to be 163%. For the same molecule, the EC50 on human MRGPRX4-83L [2] (setting [3]) was determined as 0.0898 ± 0.0209 µM.

In the case of `C#CCn1c(=O)c2[nH]c(CCc3ccccc3F)nc2n(CCCCP(=O)(O)O)c1=O` [B-24, (4-(8-(2-Fluorophenethyl)-2,6-dioxo-1-(prop-2-yn-1-yl)-1,2,6,7-tetrahydro-3H-purin-3-yl)butyl) phosphonic acid], the melting point is 239 to 241 °C. Also, on human MRGPRX4-83L [1] (Table 4), the EC50 was found to be 1.42 ± 0.29 µM and the Emax stood at 100%. Moreover, at human MRGPRX4-83L [2] (Table 4), the Emax was 98% and the EC50 was found to be 8.19 ± 1.81 µM.

Regarding `C#CCn1c(=O)c2nc(CCc3ccc(Br)cc3)[nH]c2n(CCCCP(=O)(O)O)c1=O` [B-26, (4-(8-(4-Bromophenethyl)-2,6-dioxo-1-(prop-2-yn-1-yl)-1,2,6,9-tetrahydro-3H-purin-3-yl)butyl) phosphonic acid], the melting point lay in the range of 206 to 208 °C. Also, on human MRGPRX4-83L [1] (Table 4), the EC50 is 0.187 ± 0.039 µM and the Emax was 79%. Moreover, at human MRGPRX4-83L [2] (Table 4), the Emax was 70% and the EC50 was determined as 2.74 ± 0.58 µM.

Turning to `C#CCn1c(=O)c2c(nc(CCc3ccccc3Br)n2CC2CCCC2)n(CCCCP(=O)(O)O)c1=O` [B-37, (4-(8-(2-Bromophenethyl)-7-(cyclopentylmethyl)-2,6-dioxo-1-(prop-2-yn-1-yl)-1,2,6,7-tetrahydro-3H-purin-3-yl)butyl)phosphonic acid], the melting point is 137 to 139 °C. On human MRGPRX4-83L [1] (Table 4), the EC50 amounted to 0.0892 ± 0.0255 µM and the Emax is 84%. Besides, on human MRGPRX4-83L [2] (Table 4), the Emax was determined as 87% and the EC50 turned out to be 0.169 ± 0.023 µM.

As to `C#CCn1c(=O)c2[nH]c(CCc3ccccc3I)nc2n(CCCCP(=O)(O)O)c1=O` [B-25, (4-(8-(2-Iodophenethyl)-2,6-dioxo-1-(prop-2-yn-1-yl)-1,2,6,7-tetrahydro-3H-purin-3-yl)butyl) phosphonic acid], the melting point lay in the range of 227 to 229 °C. At human MRGPRX4-83L [1] (Table 4), the EC50 worked out at 0.0431 ± 0.0094 µM and the maximal response (Emax) stood at 103%. In addition, at human MRGPRX4-83L [2] (Table 4), the Emax was 96% and the EC50 amounted to 0.381 ± 0.112 µM.

`C#CCn1c(=O)c2c(nc(CCc3ccc(CC)cc3)n2CC2CCCC2)n(CCCCP(=O)(O)O)c1=O` [B-42, (4-(7-(cyclopentylmethyl)-8-(4-ethylphenethyl)-2,6-dioxo-1-(prop-2-yn-1-yl)-1,2,6,7-tetrahydro-3H-purin-3-yl)butyl)phosphonic acid] showed a melting point of 133 to 135 °C. Moreover, on MRGPRX4-83S (Table 3), the Emax was determined as 92% and the EC50 turned out to be 0.0125 ± 0.0013 µM.

For `C#CCn1c(=O)c2c(nc(CCc3ccccc3Br)n2C)n(CCCCCP(=O)(O)O)c1=O` [B-53, (5-(8-(2-Bromophenethyl)-7-methyl-2,6-dioxo-1-(prop-2-yn-1-yl)-1,2,6,7-tetrahydro-3H-purin-3-yl)pentyl)phosphonic acid], the melting point is 110 to 112 °C. For the same molecule, at human MRGPRX4-83L [1] (Table 4), the EC50 is 0.0155 ± 0.001 µM and the Emax is 113%. For the same molecule, on human MRGPRX4-83L [2] (Table 4), the Emax was 94% and the EC50 stood at 1.07 ± 0.35 µM.

In the case of `C#CCn1c(=O)c2[nH]c(CCc3ccccc3Br)nc2n(CCCCCP(=O)(O)O)c1=O` [B-52, (5-(8-(2-Bromophenethyl)-2,6-dioxo-1-(prop-2-yn-1-yl)-1,2,6,7-tetrahydro-3H-purin-3-yl)pentyl)phosphonic acid], the melting point was in the range of 219 to 221 °C. On human MRGPRX4-83L [1] (Table 4), the EC50 came to 0.604 ± 0.275 µM and the Emax was determined as 61%. Moreover, at human MRGPRX4-83L [2] (Table 4), the Emax was found to be 93% and the EC50 came out at 1.89 ± 0.28 µM.

The molecule `C#CCn1c(=O)c2c(nc(CCc3ccccc3Br)n2CCC)n(CCCCP(=O)(O)O)c1=O` [B-22, (4-(8-(2-Bromophenethyl)-2,6-dioxo-1-(prop-2-yn-1-yl)-7-propyl-1,2,6,7-tetrahydro-3H-purin-3-yl)butyl)phosphonic acid] had a melting point of 178 to 181 °C. Moreover, on human MRGPRX4-83L [1] (Table 1), the EC50 turned out to be 0.0178 ± 0.0062 µM and the Emax was 119%. Besides, the Emax at human MRGPRX4-83L [2] (Table 1) was found to be 176%. The EC50 on human MRGPRX4-83L [2] (setting [3]) stood at 0.208 ± 0.049 µM.
